System: S. Typhimurium GFP reporter counter-screen, fluorescence, 4 h
Assay: S. Typhimurium nonspecific reporter signal inhibition – Salmonella Typhimurium, GFP fluorescence, counter-screen for PhoP regulon inhibitor project, dose response (AID 2401);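 further: S. typhimurium with Mg-insensitive nmpC-GFP reporter grown at 10 µM Mg2+; drop in reporter fluorescence reflects general culture growth inhibition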

| Structure (SMILES) | IC50 [µM] |
| --- | --- |
| O=[N+]([O-])c1ccc(O)c2ncccc12 | 2.37 |
| N=c1c2c(n(Cc3ccc(Br)cc3)c3c1CCC3)CCCC2 | 132 |
| Oc1ccc(/C=N/Nc2ncc(Br)cn2)c(O)c1 | 71.1 |
| Cc1cc(NC(c2cccnc2)c2ccc3cccnc3c2O)no1 (stereo not given) | 105 |
| Oc1c(C(Nc2nc3ccccc3s2)c2ccco2)ccc2cccnc12 (stereo not given) | 104 |
| CCn1cc(C(=O)NCCN(C)C)c(=O)c2cc(F)c(N3CCN(C)CC3)cc21 | 89.8 |
| CCCCCCCSc1cc(OC)c(CCN(C)C)cc1OC | 57.2 |
| CC(Cc1ccccc1)NCc1ccccc1O (stereo not given) | 28.2 |
| CCCCCCCNC(=O)C1(CC2CC(c3ccc(Cl)cc3)=NO2)CCNCC1 (stereo not given) | 42.5 |
| CCCCCOc1ccc(CSC(=N)N)cc1[N+](=O)[O-] | 46.8 |
| C/C(=N\NC(=O)c1cc2ccccc2cc1O)c1ccccn1 | 17 |
| O=S1(=O)Nc2c(ccc3cccnc23)-c2ccccc21 | 2.73 |
| Oc1ccc(CN2CCc3ccccc3C2)c2cccnc12 | 18.5 |
| Cc1cc(C)n(-c2nc(NCCN(C)C)c3c4c(sc3n2)CCCC4)n1 | 92.1 |
| CCCC(=O)NC(c1ccccc1)c1ccc2cccnc2c1O (stereo not given) | 40 |
| O=C(N/N=C/c1c[nH]c2ccccc12)c1cc(-c2ccc3ccccc3c2)n[nH]1 | 47.3 |
| Nc1ccc2nc(-c3cc(Cl)c(N)c(Cl)c3)[nH]c2c1 | 80.7 |
| O=C1c2ccccc2NC(c2ccc(-c3ccc(Br)cc3)o2)N1O (stereo not given) | 38.7 |
| Cc1ccc(S(=O)(=O)/N=C2/C=C(Sc3ncn[nH]3)C(=O)c3ccccc32)cc1 | 32.6 |
| O=[N+]([O-])c1ccc(N/N=C/c2ccc[nH]2)cc1 | 62 |
| Oc1ccc(CN2CCCc3ccccc32)c2cccnc12 | 28.5 |
| c1cnc2c(c1)ccc1cccnc12 | 24.5 |
| CN1CCN(C(c2ccc(C(F)(F)F)cc2)c2cc(Cl)c3cccnc3c2O)CC1 (stereo not given) | 21 |

| Structure (SMILES) | IC50 [µM] |
| --- | --- |
| COc1ccc(-c2ccc3c(N)c(C(=O)c4cccc(OC)c4)sc3n2)cc1 | 83.2 |
| CN(C)c1ccc(/C=C/c2ccc3ccccc3[n+]2C)cc1 | 19.8 |
| C=CC1=C(C(=O)O)N2C(=O)[C@@H](NC(=O)/C(=N\O)c3csc(N)n3)[C@H]2SC1 (stereo in doubt) | 33.3 |
| C#CCOCCOCCOCCNc1nc(N2CCN(C(=O)CCCCCCCCCCNC(=O)[C@H]([C@@H](C)CC)n3cc(CCCCN=C(N)N)nn3)CC2)nc(N2CCN(C(=O)CCCCCCCCCCNC(=O)[C@H]([C@@H](C)CC)n3cc(CCCCN=C(N)N)nn3)CC2)n1 | 43.4 |
| CC[n+]1c(/C=C/C=C/c2ccc(N(C)C)cc2)sc2ccccc21 | 72.9 |
| NC1=NC2(CCCCC2)N=C(Nc2ccc(Br)cc2)N1 | 119 |
| COC(=O)c1c(NC(=O)c2ccc([N+](=O)[O-])o2)sc2c1CCN(C(C)C)C2 | 69.3 |
| O=[N+]([O-])c1cc(Cl)c(O)c2ncccc12 | 5 |
| COc1ccc(C(C[N+](=O)[O-])n2nc(C)cc2C)cc1 (stereo not given) | 13.4 |
| O=[N+]([O-])c1cc(/C=N/Nc2nc3ccccc3[nH]2)c(O)cc1O | 18.2 |
| COc1ccc(/C=N/Nc2cc(C)nc3ccccc23)cc1 | 51.7 |
| CN(C)C1C(=O)C(C(N)=O)=C(O)C2(O)C(=O)C3=C(O)c4c(O)cccc4C(C)(O)C3CC12 (stereo not given) | 1.01 |
| C=CC1=C(C(=O)O)N2C(=O)[C@@H](NC(=O)/C(=N/OCC(=O)O)c3csc(N)n3)[C@H]2SC1 | 30.3 |
| O=C(O)CCN1C(=O)CC(N2C(=O)/C(=C/c3ccc(Cl)cc3)SC2=S)C1=O (stereo not given) | 20.6 |
| C=CCNc1ncnc2c1[nH]c1ccccc12 | 118 |
| O=[N+]([O-])/C=C/c1cc2ccccc2[nH]1 | 138 |
| CCCCCCCNC(=O)C1(CC2CC(c3cccc(Br)c3)=NO2)CCNCC1 (stereo not given) | 37.7 |
| Cc1c2ccncc2c(C)c2c1[nH]c1ccccc12 | 19.6 |
| CCN1CCN(C(c2ccc(C(F)(F)F)cc2)c2ccc3cccnc3c2O)CC1 (stereo not given) | 39.4 |
| CCn1cc(C(=O)NCCO)c(=O)c2cc(F)c(N3CCN(C)CC3)cc21 | 42.8 |
| CCCCCC(CC(=O)NO)C(=O)NC(C(=O)N1CCCC1CO)C(C)C (stereo not given) | 144 |
| Clc1ccc(Cl)c(OCCCCNCc2ccccc2)c1 | 97.6 |
